Patent publication US7960422B2, “Pharmaceutically active compounds containing tetrazolyl and triazolyl rings” (AstraZeneca AB, priority 2007, dated 2011)

Molecular target: T1, human mGluR5d (Homo sapiens, UniProt P41594)
T1 construct: expressed in transfected cells
Test: IP3 assay (phosphatidylinositol turnover, functional mGluR5 antagonism)
Assay type: cell-based
Conditions: GHEK cells stably expressing human mGluR5d; glutamate (80 μM) or DHPG (30 μM) as agonist
Excerpt: Biological Evaluation Functional Assessment of mGluR5 Antagonism in Cell Lines Expressing mGluR5D
The properties of the compounds of the invention can be analyzed using standard assays for pharmacological activity. Examples of glutamate receptor assays are well known in the art as described in for example Aramori et al., Neuron 8:757 (1992), Tanabe et al., Neuron 8:169 (1992), Miller et al., J. Neuroscience 15: 6103 (1995), Balazs, et al., J. Neurochemistry 69:151 (1997). The methodology described in these publications is incorporated herein by reference. Conveniently, the compounds of the invention can be studied by means of an assay (FLIPR) that measures the mobilization of intracellular calcium, [Ca^2+]i in cells expressing mGluR5 or another assay (IP3) that measures inositol phosphate turnover.
An additional functional assay for mGluR5d is described in WO97/05252 and is based on phosphatidylinositol turnover. Receptor activation stimulates phospholipase C activity and leads to increased formation of inositol 1,4,5,triphosphate (IP3).
GHEK stably expressing the human mGluR5d are seeded onto 24 well poly-L-lysine coated plates at 40×10^4 cells/well in media containing 1 μCi/well [3H] myo-inositol. Cells were incubated overnight (16 h), then washed three times and incubated for 1 h at 37° C. in HEPES buffered saline (146 mM NaCl, 4.2 mM KCl, 0.5 mM MgCl2, 0.1% glucose, 20 mM HEPES, pH 7.4) supplemented with 1 unit/ml glutamate pyruvate transaminase and 2 mM pyruvate. Cells are washed once in HEPES buffered saline and pre-incubated for 10 min in HEPES buffered saline containing 10 mM LiCl. Compounds are incubated in duplicate at 37° C. for 15 min, then either glutamate (80 μM) or DHPG (30 μM) is added and incubated for an additional 30 min. The reaction is terminated by the addition of 0.5 ml perchloric acid (5%) on ice, with incubation at 4° C. for at least 30 min. Samples are collected in 15 ml polyproplylene tubes and inositol phosphates are separated using ion-exchange resin (Dowex AG1-X8 formate form, 200-400 mesh, BIORAD) columns. Inositol phosphate separation was done by first eluting glycero phosphatidyl inositol with 8 ml 30 mM ammonium formate. Next, total inositol phosphates is eluted with 8 ml 700 mM ammonium formate/100 mM formic acid and collected in scintillation vials. This eluate is then mixed with 8 ml of scintillant and [3H] inositol incorporation is determined by scintillation counting. The dpm counts from the duplicate samples are plotted and IC50 determinations are generated using a linear least squares fitting program.

T1 sequence (P41594 21-942 isoform P41594-3 limits assumed): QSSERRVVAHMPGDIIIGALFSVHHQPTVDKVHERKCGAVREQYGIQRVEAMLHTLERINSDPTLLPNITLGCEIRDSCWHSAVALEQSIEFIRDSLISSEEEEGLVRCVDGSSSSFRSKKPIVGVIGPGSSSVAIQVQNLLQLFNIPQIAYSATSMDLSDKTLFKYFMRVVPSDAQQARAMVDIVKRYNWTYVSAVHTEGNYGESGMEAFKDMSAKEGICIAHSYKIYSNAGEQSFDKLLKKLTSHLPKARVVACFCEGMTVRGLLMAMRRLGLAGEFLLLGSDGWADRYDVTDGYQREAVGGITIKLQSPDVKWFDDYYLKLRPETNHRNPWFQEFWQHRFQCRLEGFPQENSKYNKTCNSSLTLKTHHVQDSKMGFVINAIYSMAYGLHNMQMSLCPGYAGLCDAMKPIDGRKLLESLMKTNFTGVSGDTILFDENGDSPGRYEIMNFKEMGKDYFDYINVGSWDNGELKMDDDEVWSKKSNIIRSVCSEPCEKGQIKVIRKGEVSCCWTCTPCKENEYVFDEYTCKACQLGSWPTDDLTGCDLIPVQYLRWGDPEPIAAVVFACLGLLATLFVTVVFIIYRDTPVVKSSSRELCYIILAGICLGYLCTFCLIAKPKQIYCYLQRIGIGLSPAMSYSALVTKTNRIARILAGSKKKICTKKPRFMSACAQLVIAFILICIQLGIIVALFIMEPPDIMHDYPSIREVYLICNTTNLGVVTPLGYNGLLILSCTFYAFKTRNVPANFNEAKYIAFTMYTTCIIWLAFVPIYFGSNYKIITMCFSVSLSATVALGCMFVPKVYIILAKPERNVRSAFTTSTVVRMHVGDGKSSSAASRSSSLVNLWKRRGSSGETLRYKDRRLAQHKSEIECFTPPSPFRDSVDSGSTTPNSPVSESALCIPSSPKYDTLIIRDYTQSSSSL

IC50 | Structure (SMILES)
23 nM | Cc1cccc(-n2nnc([C@@H](C)Oc3nnc(-c4cccnc4)n3C)n2)c1 [Example 10.5]
20 nM | Cc1cccc(-n2nnc([C@@H](C)Oc3nnc(-c4ccnc(C)c4)n3C)n2)c1 [Example 10.4, 2-methyl-4-(4-methyl-5-{(1R)-1-[2-(3-methylphenyl)-2H-tetrazol-5-yl]ethoxy}-4H-1,2,4-triazol-3-yl)pyridine]
36 nM | Cc1cccc(-n2nnc([C@@H](C)Oc3nnc(-c4ncccn4)n3C)n2)c1 [Example 10.1, 2-(4-methyl-5-{(1R)-1-[2-(3-methylphenyl)-2H-tetrazol-5-yl]ethoxy}-4H-1,2,4-triazol-3-yl)pyrimidine]
25 nM | Cc1cccc(-n2nnc([C@@H](C)Oc3nnc(-c4cncnc4)n3C)n2)c1 [Example 10.2, 5-(4-methyl-5-{(1R)-1-[2-(3-methylphenyl)-2H-tetrazol-5-yl]ethoxy}-4H-1,2,4-triazol-3-yl)pyrimidine]
22 nM | Cc1cccc(-n2nnc([C@@H](C)Oc3nnc(-c4cnc(C)cn4)n3C)n2)c1 [Example 10.3, 2-methyl-5-(4-methyl-5-{(1R)-1-[2-(3-methylphenyl)-2H-tetrazol-5-yl]ethoxy}-4H-1,2,4-triazol-3-yl)pyrazine]
